Patent US7560477B2, “Compounds active in sphingosine 1-phosphate signaling” (University of Virginia Patent Foundation, priority 2002, dated 2009)

What was measured:
Type in all cases: biochemical
[1] = target: T1, hS1P3 (Homo sapiens, UniProt Q99500); assay: [γ-35S]GTP binding, HEK293T cell membranes with S1P3 receptor
T1 construct: expressed in transfected cells; host or cells: HEK293T cells, transient transfection
Protocol: (§1) Human or mouse S1P5 DNA was mixed with an equal amount of DNA encoding a rat Gi2R protein as well as DNAs encoding cow β1 and γ2 proteins and used to transfect monolayers of HEK293T cells using the calcium phosphate precipitate method. After 60 h, cells were harvested, and microsomes were prepared, aliquoted, and stored at −70° C. until use.
(§2) After incubating for 30 min at 30° C., bound radionuclide was separated from free by filtration through Whatman GF/C paper using a Brandel Cell Harvester (Gaithersburg, Md.).
(§3) Assay of cAMP accumulation was performed as described previously (See Im et al., J. Biol. Chem. 275, 14281-14286 (2000), the disclosure of which is incorporated herein). Assays were conducted on populations of 5×10^5 cells stimulated with 1 uM forskolin in the presence of the phosphodiesterase inhibitor […] (IBMX, 1 mM) for 15 min. cAMP was measured by automated radioimmunoassay. The GTPγS studies were performed using zebrafish S1P1 overexpressed rat RH-7777 and human hS1P1, hS1P2, hS1P3 and hS1P5 overexpressed human HEK293 cells.
(§4) An additional series of compounds was tested using the GTPCS binding assay described in Example 2 and in Im et al., J. Biol. Chem. 275, 14281-14286 (2000), the disclosure of which is incorporated herein).

[2] = target: T2, hS1P1 (Homo sapiens, UniProt P21453); assay: [γ-35S]GTP binding, HEK293T cell membranes with S1P1 receptor
T2 construct: expressed in transfected cells; host or cells: HEK293T cells, transient transfection
T2 sequence (P21453 whole entry): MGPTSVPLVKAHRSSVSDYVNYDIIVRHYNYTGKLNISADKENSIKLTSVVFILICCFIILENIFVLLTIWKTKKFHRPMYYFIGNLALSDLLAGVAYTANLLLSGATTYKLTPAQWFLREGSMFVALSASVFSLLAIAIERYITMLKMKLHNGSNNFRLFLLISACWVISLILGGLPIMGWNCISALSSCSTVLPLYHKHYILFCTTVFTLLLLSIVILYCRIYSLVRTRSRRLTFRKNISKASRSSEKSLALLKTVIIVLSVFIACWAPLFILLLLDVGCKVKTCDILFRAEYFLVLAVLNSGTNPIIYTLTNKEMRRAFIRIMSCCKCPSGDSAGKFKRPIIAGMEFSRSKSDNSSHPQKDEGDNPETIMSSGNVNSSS
Protocol: as §1, §2, §3, §4

[3] = system: Recombinant S1P Receptors; assay: [γ-35S]GTP binding at recombinant S1P receptors (statements covering all receptors tested); conditions: at each receptor
Protocol: The same results were obtained regardless of whether the recombinant receptor used exogenous G proteins (HEK293T cells) or endogenous G proteins (RH7777 cells). […] The Sf9 cell and HEK293T cell membranes gave similar results. Furthermore, the activities measured in the broken cell assay predicted the responses seen in whole cell assays.
as §2, §3

T1 sequence (Q99500 whole entry): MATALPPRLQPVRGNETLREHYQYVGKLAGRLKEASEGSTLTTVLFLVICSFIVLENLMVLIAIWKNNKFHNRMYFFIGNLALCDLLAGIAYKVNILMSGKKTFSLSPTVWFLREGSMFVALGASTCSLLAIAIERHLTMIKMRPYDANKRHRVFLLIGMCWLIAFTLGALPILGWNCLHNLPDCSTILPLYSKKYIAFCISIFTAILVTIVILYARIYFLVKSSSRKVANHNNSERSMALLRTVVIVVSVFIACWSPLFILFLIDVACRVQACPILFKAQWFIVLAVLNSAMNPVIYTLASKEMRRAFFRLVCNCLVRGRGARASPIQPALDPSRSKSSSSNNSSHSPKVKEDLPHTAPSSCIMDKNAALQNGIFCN

CCCCCCCCCc1cccc(NC(=O)[C@H](N)COP(=O)(O)O)c1 [VPC23079] was tested, and the “type of activity at the S1P3 receptor (inverse agonism / agonism)” value (“type … (inverse agonism / agonism)” for short) ([1]; result in words) was “agonism”.
With CCCCCCCCCCCCCCOC(=O)[C@@H](N)COP(=O)(O)O [VPC22053] the “less potent than enantiomer VPC22135 at S1P3 receptor” value [1] was “more than 1 log order” and the “less potent than enantiomer VPC22135 at S1P1 receptor” value [2] was “more than 1 log order”.
In the case of CCCCCCCCc1cccc(NC(=O)[C@H](N)COP(=O)(O)O)c1 [VPC23019], the “type … (inverse agonism / agonism)” value ([1]; result in words) is reported as “inverse agonists” and the “antagonism at S1P1” value ([2]; result in words, competition with S1P) is reported as “antagonism”.
For CCCCCCc1cccc(NC(=O)[C@H](N)COP(=O)(O)O)c1 [VPC23031], the “type … (inverse agonism / agonism)” value ([1]; result in words) was “inverse agonists”.
With CCCCCCCCCCCCC/C=C/[C@@H](O)[C@@H](N)COP(=O)(O)O [Compound S1P, Sphingosine-1-phosphate] the “increase of GTPγS binding” value [3] was 2-5 fold.
With CCCCCCCCCCCCCCNC(=O)[C@H](N)COP(=O)(O)O [VPC22135] the “potency compared with S1P at human S1P3 receptor” value ([1]; result in words) was “approached the potency of S1P” and the “potency compared with S1P at human S1P1 receptor” value ([2]; result in words) was “approached the potency of S1P”.
In the case of CCCCCCCCc1ccccc1NC(=O)[C@H](N)COP(=O)(O)O [VPC23089], the “type … (inverse agonism / agonism)” value ([1]; result in words) is reported as “inverse agonists”.
CCCCCCCCCCc1cccc(NC(=O)[C@H](N)COP(=O)(O)O)c1 [VPC23069] was tested, and the “type … (inverse agonism / agonism)” value ([1]; result in words) was “agonism”.
